In PubChem BioAssay AID1963431 (Molecular Pharmacology Branch, DTP, NCI, 2024):

System: Rh18 complex spheroid viability, percent test/control
Assay: Anticancer human tumor Rh18 cell line growth inhibition [Asc];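 further: spheroids exposed to compound for 7 days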;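 on viability, T/C: 100% = DMSO vehicle control wells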
Conditions: for IC50: curve of first compound; for viability, T/C: stronger effect = lower value
How it was run: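 Tumor cells were grown as multicellular spheroids with stromal HUVEC and mesenchymal stem cells and treated singly or in combination. Concentrations fell in half-log steps from the clinical Cmax, or from 10 microM where none was known.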

[1] = second compound 0.1 µM, first compound 0.000316 µM
[2] = second compound 0.1 µM, first compound 0.001 µM
[3] = second compound 0.1 µM, first compound 0.00316 µM
[4] = second compound 0.1 µM, first compound 0.01 µM
[5] = second compound 0.1 µM, first compound 0.0316 µM
[6] = second compound 0.1 µM, first compound 0.1 µM
[7] = second compound 0.316 µM, first compound 0.000316 µM
[8] = second compound 0.316 µM, first compound 0.001 µM
[9] = second compound 0.316 µM, first compound 0.00316 µM
[10] = second compound 0.316 µM, first compound 0.01 µM
[11] = second compound 0.316 µM, first compound 0.0316 µM
[12] = second compound 0.316 µM, first compound 0.1 µM
[13] = second compound 1 µM, first compound 0.000316 µM
[14] = second compound 1 µM, first compound 0.001 µM
[15] = second compound 1 µM, first compound 0.00316 µM
[16] = second compound 1 µM, first compound 0.01 µM
[17] = second compound 1 µM, first compound 0.0316 µM
[18] = second compound 1 µM, first compound 0.1 µM
[19] = second compound 0.01 µM, first compound 0.00316 µM
[20] = second compound 0.01 µM, first compound 0.01 µM
[21] = second compound 0.01 µM, first compound 0.0316 µM
[22] = second compound 0.01 µM, first compound 0.1 µM
[23] = second compound 0.0316 µM, first compound 0.00316 µM
[24] = second compound 0.0316 µM, first compound 0.01 µM
[25] = second compound 0.0316 µM, first compound 0.0316 µM
[26] = second compound 0.0316 µM, first compound 0.1 µM

| Structure (SMILES) | IC50 (second compound 0.1 µM) [nM] | IC50 (second compound 0.316 µM) [nM] | IC50 (second compound 1 µM) [nM] | viability, T/C [1] [%] | viability, T/C [2] [%] | viability, T/C [3] [%] | viability, T/C [4] [%] | viability, T/C [5] [%] | viability, T/C [6] [%] | viability, T/C [7] [%] | viability, T/C [8] [%] | viability, T/C [9] [%] | viability, T/C [10] [%] | viability, T/C [11] [%] | viability, T/C [12] [%] | viability, T/C [13] [%] | viability, T/C [15] [%] | viability, T/C [16] [%] | viability, T/C [17] [%] | viability, T/C [18] [%] | other results |
| --- | --- | --- | --- | --- | --- | --- | --- | --- | --- | --- | --- | --- | --- | --- | --- | --- | --- | --- | --- | --- | --- |
| Cn1ncnc1[C@H]1c2n[nH]c(=O)c3cc(F)cc(c23)N[C@@H]1c1ccc(F)cc1 + Cc1c(S(C)(=O)=O)c(-c2cc(F)cc(N3CCN(c4ccc(NS(=O)(=O)c5ccc(NC(CCN6CCC(C(=O)OCCCP(=O)(O)O)CC6)CSc6ccccc6)c(S(=O)(=O)C(F)(F)F)c5)cc4)CC3)c2)c(-c2ccc(Cl)cc2)n1C(C)C | < 0.316 | < 0.316 | < 0.316 | 17.4 | 14.9 | 17 | 15.3 | 13.6 | 15.4 | 10.9 | 11.7 | 10.6 | 11.8 | 11.4 | 12.6 | 10.5 | 7.96 | 6.9 | 8.38 | 9.11 | IC50 (second compound 3.16 µM): < 0.316 nM; IC50 (second compound 10 µM): < 0.316 nM; viability, T/C [14]: 9.96%; viability, T/C (second compound 3.16 µM, first compound 0.000316 µM): 5.76%; viability, T/C (second compound 3.16 µM, first compound 0.001 µM): 7.46%; viability, T/C (second compound 3.16 µM, first compound 0.00316 µM): 5.55%; viability, T/C (second compound 3.16 µM, first compound 0.01 µM): 6.19%; viability, T/C (second compound 3.16 µM, first compound 0.0316 µM): 6.82%; viability, T/C (second compound 3.16 µM, first compound 0.1 µM): 6.64%; viability, T/C (second compound 10 µM, first compound 0.000316 µM): 6.76%; viability, T/C (second compound 10 µM, first compound 0.001 µM): 6.12%; viability, T/C (second compound 10 µM, first compound 0.00316 µM): 6.36%; viability, T/C (second compound 10 µM, first compound 0.01 µM): 5.83%; viability, T/C (second compound 10 µM, first compound 0.0316 µM): 6.8%; viability, T/C (second compound 10 µM, first compound 0.1 µM): 9.69% |
| Cn1ncnc1[C@H]1c2n[nH]c(=O)c3cc(F)cc(c23)N[C@@H]1c1ccc(F)cc1 + CNC(C)C(=O)NC1CN(S(=O)(=O)c2cccc(S(=O)(=O)N3CCC4CCC(C(=O)NC(c5ccccc5)c5ccccc5)N4C(=O)C(NC(=O)C(C)NC)C3)c2)CCC2CCC(C(=O)NC(c3ccccc3)c3ccccc3)N2C1=O | < 0.316 | 0.406 | 0.588 | 39.4 | 47.7 | 34.6 | 18 | 14.8 | 15 | 55.7 | 29.6 | 25.5 | 19.6 | 12.4 | 20 | 49.1 | 42.9 | 26.1 | 18.4 | 14.2 | IC50 (second compound 0.01 µM): 3.74 nM; IC50 (second compound 0.0316 µM): 1.53 nM; viability, T/C (second compound 0.01 µM, first compound 0.000316 µM): 54.4%; viability, T/C (second compound 0.01 µM, first compound 0.001 µM): 64.3%; viability, T/C [19]: 53.5%; viability, T/C [20]: 26.7%; viability, T/C [21]: 18.4%; viability, T/C [22]: 19.2%; viability, T/C (second compound 0.0316 µM, first compound 0.000316 µM): 62.7%; viability, T/C (second compound 0.0316 µM, first compound 0.001 µM): 58.1%; viability, T/C [23]: 36.5%; viability, T/C [24]: 23.1%; viability, T/C [25]: 18.7%; viability, T/C [26]: 21.3%; viability, T/C [14]: 51.2% |
| O=C(c1ccc(F)c(F)c1Nc1ccc(I)cc1F)N1CC(O)([C@@H]2CCCCN2)C1 + CNC(C)C(=O)NC1CN(S(=O)(=O)c2cccc(S(=O)(=O)N3CCC4CCC(C(=O)NC(c5ccccc5)c5ccccc5)N4C(=O)C(NC(=O)C(C)NC)C3)c2)CCC2CCC(C(=O)NC(c3ccccc3)c3ccccc3)N2C1=O | < 3.16 | < 3.16 | < 3.16 |  |  | 39.7 | 40.8 | 36.1 | 43.4 |  |  | 43.8 | 47 | 38.2 | 42.3 |  | 41.5 | 37.6 | 37.3 | 42.9 | IC50 (second compound 0.01 µM): 61.8 nM; IC50 (second compound 0.0316 µM): 3.16 nM; viability, T/C [19]: 53.6%; viability, T/C [20]: 59.4%; viability, T/C [21]: 48.5%; viability, T/C [22]: 45.2%; viability, T/C (second compound 0.01 µM, first compound 0.316 µM): 41.8%; viability, T/C (second compound 0.01 µM, first compound 1 µM): 14.8%; viability, T/C [23]: 50.4%; viability, T/C [24]: 46.1%; viability, T/C [25]: 43.6%; viability, T/C [26]: 47.7%; viability, T/C (second compound 0.0316 µM, first compound 0.316 µM): 52.1%; viability, T/C (second compound 0.0316 µM, first compound 1 µM): 20.4%; viability, T/C (second compound 0.1 µM, first compound 0.316 µM): 37.9%; viability, T/C (second compound 0.1 µM, first compound 1 µM): 8.57%; viability, T/C (second compound 0.316 µM, first compound 0.316 µM): 41.6%; viability, T/C (second compound 0.316 µM, first compound 1 µM): 13.5%; viability, T/C (second compound 1 µM, first compound 0.316 µM): 28.9%; viability, T/C (second compound 1 µM, first compound 1 µM): 11.6% |
